These results are taken from the OligoGym collection.

Values joined by “and” are separate entries in the source; they are usually repeats but may differ in a detail not shown here. Equal entries are not always repeated. After the bases stand the sugars from the 5' end (letter, count) and the backbone: PS all phosphorothioate, else s phosphorothioate and o phosphodiester by linkage. Methylation of C is not given here. e = 2'-O-(2-methoxyethyl) (MOE); k = constrained ethyl (cEt); d = 2'-deoxy (DNA)

The data set addresses IRF4. As to conditions: ASO.

Turning to CAAGGCTACAGGCACG (sugars k3 d10 k3, PS), for the setting “SK-MEL-28, 4 µM”, the target mRNA inhibition was 51%.
Consider TAGTTTTATGTTAGCC (sugars k3 d10 k3, PS), for which the target mRNA inhibition was 4% (MM.1R, 0.0625 µM); -1% (MM.1R, 0.074 µM); 4% (MM.1R, 0.222 µM); 18% (MM.1R, 0.25 µM); 22% (MM.1R, 0.666 µM); 45% (MM.1R, 1 µM). The target mRNA inhibition by setting is: (MM.1R, 2 µM) 39%; (MM.1R, 4 µM) 78%; (SK-MEL-28, 4 µM) 75%.
In the case of CTACCTTTTTTGGCTC (sugars k3 d10 k3, PS), the target mRNA inhibition (SK-MEL-28, 4 µM) amounted to 17%.
The same measure, in the same setting: with AAAAACTTGGGTCACT (sugars k3 d10 k3, PS) the figure was -19%.
With TTGCTTTGCAGAGCAA (sugars k3 d10 k3, PS), under “SK-MEL-28, 4 µM”, the target mRNA inhibition turned out to be 28%.
In the case of AGCTGCCACTGGTAAC (sugars k3 d10 k3, PS), where the note is “MM.1R, 1 µM”, the target mRNA inhibition was found to be 0%.
For GCAAGTTTTCTCTGTC (sugars k3 d10 k3, PS), the target mRNA inhibition (SK-MEL-28, 4 µM) worked out at 56%.
Take ATTCTTGAATAGAGGA (sugars k3 d10 k3, PS): the target mRNA inhibition (MM.1R, 1 µM) worked out at 16%.
Turning to CCAGAGCACACAGACG (sugars k3 d10 k3, PS), the target mRNA inhibition (SK-MEL-28, 4 µM) amounted to 36%.
Take CCTTACCTCGCCCTGG (sugars k3 d10 k3, PS): the target mRNA inhibition (MM.1R, 1 µM) was -31%.
TCCCGGAGGAAGTCCC (sugars k3 d10 k3, PS): the target mRNA inhibition (SK-MEL-28, 4 µM) was found to be 30%.
Same read-out and setting: with ACCCAGAAGTACGAGC (sugars k3 d10 k3, PS) the figure was 21%; with GTCTACTGCTGTACTT (sugars k3 d10 k3, PS), 52%; with AGCTTGATAAAGGCTG (sugars k3 d10 k3, PS), 36%.
Consider AGATCTGTGGTAATCT (sugars k3 d10 k3, PS), for which, under “MM.1R, 1 µM”, the target mRNA inhibition is -3%.
The same measure, in the same setting: the value for TGCAGCACCGTGGTGC (sugars k3 d10 k3, PS) was -1%.
In the case of CTGCACTCGCCCTGGA (sugars k3 d10 k3, PS), under “SK-MEL-28, 4 µM”, the target mRNA inhibition is 42%.
Regarding “ACCTCAGTTTGTGAAG (sugars kkdddddddddkekek, PS)”, the target mRNA inhibition (MM.1R, 1 µM) stood at 13%.
With TTGGAAACCAGCCCTT (sugars k3 d10 k3, PS), the target mRNA inhibition (SK-MEL-28, 4 µM) came out at 39%.
With “ATGTTAGCCAATTCCT (sugars kkdddddddddekeke, PS)”, the target mRNA inhibition (MM.1R, 1 µM) is 27% and 30%.
As to AGGTAAGGGCCCCGTG (sugars k3 d10 k3, PS), the target mRNA inhibition (SK-MEL-28, 4 µM) amounted to 47%.
In the case of AATGGAGATACTTGTA (sugars k3 d10 k3, PS), the target mRNA inhibition (MM.1R, 1 µM) is 26%.
On to TCATACCCAATAGTCT (sugars k3 d10 k3, PS), for which, where the note is “SK-MEL-28, 4 µM”, the target mRNA inhibition stood at 52%.
On the same count and under the same terms, the value for CAAAGACCAGCTTTTT (sugars k3 d10 k3, PS) was 50%; that for TCACAAAGCGGGTTCA (sugars k3 d10 k3, PS) was 23%.
Take CTACTCTTCAGGCACC (sugars k3 d10 k3, PS): under “MM.1R, 1 µM”, the target mRNA inhibition came to 18%.
With GTTAAAGGAGTGCAGG (sugars k3 d10 k3, PS), for the setting “SK-MEL-28, 4 µM”, the target mRNA inhibition was -14%.
AAGATGACTCCATGAG (sugars k3 d10 k3, PS): the target mRNA inhibition (SK-MEL-28, 4 µM) was determined as 64%.
On the same count and under the same terms, with CGGGAATTTCCATTGG (sugars k3 d10 k3, PS) the figure was 50%; with CTTAGAATGCATAACA (sugars k3 d10 k3, PS), 26%.
“AGGCACATCAATGTTT (sugars kkddddddddddkeke, PS)”: the target mRNA inhibition (MM.1R, 1 µM) is 16% and 14%.
For the sequence GCTGAATGCTCTCCAT (sugars k3 d10 k3, PS), for the setting “SK-MEL-28, 4 µM”, the target mRNA inhibition was determined as 52%.
As to GGCTAATGAAATGTCA (sugars k3 d10 k3, PS), the target mRNA inhibition (SK-MEL-28, 4 µM) is 64%.
On to GTTGGCACAATTCTCT (sugars k3 d10 k3, PS), for which, under “MM.1R, 1 µM”, the target mRNA inhibition is 22% and 16%.
In the case of “GAAGTTTACACTGGAT (sugars k2 d9 e3 k2, PS)”, under “MM.1R, 1 µM”, the target mRNA inhibition is 28%.
The same measure, in the same setting: the value for “TGTGATAGCTGAGCTG (sugars kkddddddddddkeke, PS)” was 16%.
For the sequence CGTTCCTTTTCAGAGT (sugars k3 d10 k3, PS), the target mRNA inhibition (SK-MEL-28, 4 µM) came out at 30%.
Still for that read-out and setting: with ACGCGCGGAGGACCTC (sugars k3 d10 k3, PS) the figure was 13%; with GACAGCTAAAGAACAC (sugars k3 d10 k3, PS), 19%.
As to CGCGCAAGTCTACAGC (sugars k3 d10 k3, PS), where the note is “MM.1R, 1 µM”, the target mRNA inhibition came to 13%.
Regarding CTGATCGCTGGACAGC (sugars k3 d10 k3, PS), the target mRNA inhibition (SK-MEL-28, 4 µM) worked out at 20%.
With CGACACGCGCCGCTCG (sugars k3 d10 k3, PS), the target mRNA inhibition was -6% (MM.1R, 0.0625 µM); -10% (MM.1R, 0.25 µM); -13% (MM.1R, 4 µM).
